Several values for one entry are separate records, joined by “and”; a condition that tells them apart may be missing. Identical values can stand only once.
Experiment: Patient incidence of adverse events (CTCAE version 4.0)
Type: in vivo
Excerpt: Each patient was monitored for 21 days for the occurrence of dose-limiting toxicities (DLTs), defined as febrile neutropenia, neutropenic infection, grade 4 neutropenia lasting >7 days, grade ≥ 3 thrombocytopenia lasting >7 days (solid tumors only), grade 3 thrombocytopenia with grade ≥ 2 bleeding (solid tumors only), grade 3 or 4 thrombocytopenia with grade > 1 bleeding (multiple myeloma only), grade 4 thrombocytopenia (solid tumors only), or grade 4 thrombocytopenia lasting >14 days (multiple myeloma only), or as grade ≥ 3 nausea, vomiting, or diarrhea after support; grade 3 fatigue lasting >7 days; any other grade ≥ 3 adverse event (AE); grade ≥ 3 kidney injury (multiple myeloma only), or treatment-related AEs not returning to grade ≤ 1 (solid tumors only) per Common Terminology Criteria for Adverse Events (CTCAE), version 4.0. The MTD was defined as the maximum dose, at which the probability of a DLT was ≤25% in Part 1A and ≤ 33% in Parts 1B and 1C. Treatment continued until disease progression, intolerable toxicity, or withdrawal of consent.
AEs were recorded for all enrolled patients.

[1] = dose escalation, 300 mg (n = 4)
[2] = dose escalation, 360 mg (n = 4)
[3] = dose escalation, 480 mg (n = 6)
[4] = dose escalation, Total (n = 39)

SMILES: CC(C)[C@@H](CS(=O)(=O)C(C)C)N1C(=O)[C@@](C)(CC(=O)O)C[C@H](c2cccc(Cl)c2)[C@H]1c1ccc(Cl)cc1 [AMG 232]
- Treatment-related AE: Upper abdominal pain [1]: 1 (25) n (%)
- Treatment-related AE: Vomiting [1]: 3 (75) n (%)
- Treatment-related serious AE: Abdominal pain (grade 2) [1]: 0 n (%)
- Treatment-related serious AE: Dehydration (grade 2) [1]: 1 (25) n (%)
- Treatment-related serious AE: Diarrhea [1]: 1 (25) n (%)
- Treatment-related serious AE: Diarrhea, Grade 2 [1]: 0 n (%)
- Treatment-related serious AE: Diarrhea, Grade 3 [1]: 1 (25) n (%)
- Treatment-related serious AE: Febrile neutropenia (grade 3) [1]: 1 (25) n (%)
- Treatment-related serious AE: Hematemesis (grade 3) [1]: 0 n (%)
- Treatment-related serious AE: Nausea (grade 3) [1]: 0 n (%)
- Treatment-related serious AE: Neutropenia (grade 4) [1]: 0 n (%)
- Treatment-related serious AE: Non-cardiac chest pain (grade 3) [1]: 0 n (%)
- Treatment-related serious AE: Thrombocytopenia (grade 4) [1]: 0 n (%)
- Treatment-related serious AE: Vomiting [1]: 2 (50) n (%)
- Treatment-related serious AE: Vomiting, Grade 2 [1]: 1 (25) n (%)
- Treatment-related serious AE: Vomiting, Grade 3 [1]: 1 (25) n (%)
- Patients with any treatment-emergent AE [2]: 4 (100) n (%)
- Patients with any treatment-emergent serious AE [2]: 0 n (%)
- Patients with any treatment-related AE [2]: 4 (100) n (%)
- Patients with any treatment-related AE, Grade 3 [2]: 3 (75) n (%)
- Patients with any treatment-related AE, Grade 4 [2]: 2 (50) n (%)
- Patients with any treatment-related AE, Grade 5 [2]: 0 n (%)
- Patients with any treatment-related serious AE [2]: 0 n (%)
- Treatment-related AE: Abdominal pain [2]: 1 (25) n (%)
- Treatment-related AE: Anemia [2]: 2 (50) n (%)
- Treatment-related AE: Asthenia [2]: 2 (50) n (%)
- Treatment-related AE: Decrease appetite [2]: 3 (75) n (%)
- Treatment-related AE: Diarrhea [2]: 4 (100) n (%)
- Treatment-related AE: Dysgeusia [2]: 1 (25) n (%)
- Treatment-related AE: Fatigue [2]: 0 n (%)
- Treatment-related AE: Myalgia [2]: 2 (50) n (%)
- Treatment-related AE: Nausea [2]: 4 (100) n (%)
- Treatment-related AE: Neutropenia [2]: 3 (75) n (%)
- Treatment-related AE: Thrombocytopenia [2]: 4 (100) n (%)
- Treatment-related AE: Upper abdominal pain [2]: 1 (25) n (%)
- Treatment-related AE: Vomiting [2]: 3 (75) n (%)
- Treatment-related serious AE: Abdominal pain (grade 2) [2]: 0 n (%)
- Treatment-related serious AE: Dehydration (grade 2) [2]: 0 n (%)
- Treatment-related serious AE: Diarrhea [2]: 0 n (%)
- Treatment-related serious AE: Diarrhea, Grade 2 [2]: 0 n (%)
- Treatment-related serious AE: Diarrhea, Grade 3 [2]: 0 n (%)
- Treatment-related serious AE: Febrile neutropenia (grade 3) [2]: 0 n (%)
- Treatment-related serious AE: Hematemesis (grade 3) [2]: 0 n (%)
- Treatment-related serious AE: Nausea (grade 3) [2]: 0 n (%)
- Treatment-related serious AE: Neutropenia (grade 4) [2]: 0 n (%)
- Treatment-related serious AE: Non-cardiac chest pain (grade 3) [2]: 0 n (%)
- Treatment-related serious AE: Thrombocytopenia (grade 4) [2]: 0 n (%)
- Treatment-related serious AE: Vomiting [2]: 0 n (%)
- Treatment-related serious AE: Vomiting, Grade 2 [2]: 0 n (%)
- Treatment-related serious AE: Vomiting, Grade 3 [2]: 0 n (%)
- Patients with any treatment-emergent AE [3]: 6 (100) n (%)
- Patients with any treatment-emergent serious AE [3]: 4 (67) n (%)
- Patients with any treatment-related AE [3]: 6 (100) n (%)
- Patients with any treatment-related AE, Grade 3 [3]: 3 (50) n (%)
- Patients with any treatment-related AE, Grade 4 [3]: 3 (50) n (%)
- Patients with any treatment-related AE, Grade 5 [3]: 0 n (%)
- Patients with any treatment-related serious AE [3]: 2 (33) n (%)
- Treatment-related AE: Abdominal pain [3]: 0 n (%)
- Treatment-related AE: Anemia [3]: 2 (33) n (%)
- Treatment-related AE: Asthenia [3]: 0 n (%)
- Treatment-related AE: Decrease appetite [3]: 1 (17) n (%)
- Treatment-related AE: Diarrhea [3]: 6 (100) n (%)
- Treatment-related AE: Dysgeusia [3]: 0 n (%)
- Treatment-related AE: Fatigue [3]: 4 (67) n (%)
- Treatment-related AE: Myalgia [3]: 1 (17) n (%)
- Treatment-related AE: Nausea [3]: 3 (50) n (%)
- Treatment-related AE: Neutropenia [3]: 3 (50) n (%)
- Treatment-related AE: Thrombocytopenia [3]: 5 (83) n (%)
- Treatment-related AE: Upper abdominal pain [3]: 0 n (%)
- Treatment-related AE: Vomiting [3]: 4 (67) n (%)
- Treatment-related serious AE: Abdominal pain (grade 2) [3]: 0 n (%)
- Treatment-related serious AE: Dehydration (grade 2) [3]: 0 n (%)
- Treatment-related serious AE: Diarrhea [3]: 0 n (%)
- Treatment-related serious AE: Diarrhea, Grade 2 [3]: 0 n (%)
- Treatment-related serious AE: Diarrhea, Grade 3 [3]: 0 n (%)
- Treatment-related serious AE: Febrile neutropenia (grade 3) [3]: 0 n (%)
- Treatment-related serious AE: Hematemesis (grade 3) [3]: 1 (17) n (%)
- Treatment-related serious AE: Nausea (grade 3) [3]: 0 n (%)
- Treatment-related serious AE: Neutropenia (grade 4) [3]: 1 (17) n (%)
- Treatment-related serious AE: Non-cardiac chest pain (grade 3) [3]: 0 n (%)
- Treatment-related serious AE: Thrombocytopenia (grade 4) [3]: 2 (33) n (%)
- Treatment-related serious AE: Vomiting [3]: 0 n (%)
- Treatment-related serious AE: Vomiting, Grade 2 [3]: 0 n (%)
- Treatment-related serious AE: Vomiting, Grade 3 [3]: 0 n (%)
- Patients with any treatment-emergent AE [4]: 37 (95%) n (%) and 37 (95) n (%)
- Patients with any treatment-emergent serious AE [4]: 14 (36%) n (%) and 14 (36) n (%)
- Patients with any treatment-related AE, Grade 3 [4]: 13 (33) n (%)
- Patients with any treatment-related AE, Grade 4 [4]: 8 (21) n (%)
- Patients with any treatment-related AE, Grade 5 [4]: 0 n (%)
- Treatment-related AE: Abdominal pain [4]: 4 (10) n (%)
- Treatment-related AE: Anemia [4]: 5 (13) n (%)
- Treatment-related AE: Asthenia [4]: 4 (10) n (%)
- Treatment-related AE: Decrease appetite [4]: 10 (26) n (%)
- Treatment-related AE: Diarrhea [4]: 25 (64) n (%)
- Treatment-related AE: Dysgeusia [4]: 4 (10) n (%)
- Treatment-related AE: Fatigue [4]: 16 (41) n (%)
- Treatment-related AE: Myalgia [4]: 4 (10) n (%)
- Treatment-related AE: Nausea [4]: 20 (51) n (%)
- Treatment-related AE: Neutropenia [4]: 8 (21) n (%)
- Treatment-related AE: Thrombocytopenia [4]: 14 (36) n (%)
- Treatment-related AE: Upper abdominal pain [4]: 4 (10) n (%)
- Treatment-related AE: Vomiting [4]: 18 (46) n (%)
- Treatment-related serious AE: Abdominal pain (grade 2) [4]: 1 (3) n (%)
- Treatment-related serious AE: Dehydration (grade 2) [4]: 1 (3) n (%)
- Treatment-related serious AE: Diarrhea [4]: 2 (5) n (%)
- Treatment-related serious AE: Diarrhea, Grade 2 [4]: 1 (3) n (%)
- Treatment-related serious AE: Diarrhea, Grade 3 [4]: 1 (3) n (%)
- Treatment-related serious AE: Febrile neutropenia (grade 3) [4]: 1 (3) n (%)
- Treatment-related serious AE: Hematemesis (grade 3) [4]: 1 (3) n (%)
- Treatment-related serious AE: Nausea (grade 3) [4]: 1 (3) n (%)
- Treatment-related serious AE: Neutropenia (grade 4) [4]: 1 (3) n (%)
- Treatment-related serious AE: Non-cardiac chest pain (grade 3) [4]: 1 (3) n (%)
- Treatment-related serious AE: Thrombocytopenia (grade 4) [4]: 2 (5) n (%)
- Treatment-related serious AE: Vomiting [4]: 3 (8) n (%)
- Treatment-related serious AE: Vomiting, Grade 2 [4]: 1 (3) n (%)
- Treatment-related serious AE: Vomiting, Grade 3 [4]: 2 (5) n (%)
- Treatment-emergent AE: abdominal pain (dose escalation, all patients): 21%
- Treatment-emergent AE: anemia (dose escalation, all patients): 26%
- Treatment-emergent AE: decreased appetite (dose escalation, all patients): 39%
- Treatment-emergent AE: diarrhea (dose escalation, all patients): 67%
- Treatment-emergent AE: fatigue (dose escalation, all patients): 41%
- Treatment-emergent AE: nausea (dose escalation, all patients): 59%
- Treatment-emergent AE: neutropenia (dose escalation, all patients): 26%
- Treatment-emergent AE: thrombocytopenia (dose escalation, all patients): 36%
- Treatment-emergent AE: vomiting (dose escalation, all patients): 51%
- Treatment-related AE: Diarrhea (dose escalation, all patients): 64%
- Treatment-related AE: Fatigue (dose escalation, all patients): 41%
- Treatment-related AE: Nausea (dose escalation, all patients): 51%
- Treatment-related AE: Neutropenia (dose escalation, all patients): 21%
- Treatment-related AE: Thrombocytopenia (dose escalation, all patients): 36%
- Treatment-related AE: Vomiting (dose escalation, all patients): 46%
- Treatment-related AE: decreased appetite (dose escalation, all patients): 26%
- Patients discontinuing treatment due to AEs (entire study (107 patients)): 21 n
